Values after ≈ are worked out from the molar mass of the structure shown. “Also recorded” adds a separate entry of the source.
Tests used:
MDA, SOD, CAT, GSHPx = assay: Brain antioxidant status in caffeine-induced wakefulness mice; assay type: in vivo; conditions: caffeine-induced wake mouse, result in words
Experimental: Animals were anesthetized with urethane ([…], i.p., Sigma U2500). Body temperature was maintained between 36.5 and 37° C. with homeothermic blanket. Mice were stabilized under a stereotaxic frame (World Precision Instruments, Berlin; Germany) and an incision was made on the skin along the anterior/posterior line of the skull. The left […] was removed gently with a dental drill (Marothon-3; Korea). Two Ag-AgCl sphere electrodes were placed over the left hemisphere with the reference electrode attached on the pinna. […] Brains were rapidly removed, frozen on dry ice and stored at -80° C. until analyses could be performed. Biochemical and Oxidative Stress Markers-Serum melatonin, serotonin, and dopamine were measured using ELISA kits. Brain levels of malondialdehyde (MDA) were measured by HPLC. Brain activities of superoxide dismutase (SOD), catalase (CAT) and glutathione peroxidase (GSHPx) were measured using ELISA kits for each analyte.

[1] = tested on: brain waves (spike amplitude / spike frequency); assay: Electrocorticography (ECoG) of brain electrical activity in caffeine-induced wakefulness mice; assay type: in vivo; conditions: caffeine-induced wake mouse, electrical activity over 120 minutes, result in words
Experimental: Animals were anesthetized with urethane ([…], i.p., Sigma U2500). Body temperature was maintained between 36.5 and 37° C. with homeothermic blanket. Mice were stabilized under a stereotaxic frame (World Precision Instruments, Berlin; Germany) and an incision was made on the skin along the anterior/posterior line of the skull. The left […] was removed gently with a dental drill (Marothon-3; Korea). Two Ag—AgCl sphere electrodes were placed over the left hemisphere with the reference electrode attached on the pinna.
Brains were rapidly removed, frozen on dry ice and stored at −80° C. until analyses could be performed.

[2] = tested on: pentobarbital-induced sleep; assay: Pentobarbital-induced sleep test mouse model; assay type: in vivo, mice; conditions: for Duration of sleep / Sleep latency period: pentobarbital 42 mg/kg, test article 20 mg theanine/kg per os 45 min before
Experimental: Subsequently, pentobarbital was administered intraperitoneally to induce a hypnotic state that promoted sleep. The effects on sleep of the test agents were monitored.
Pentobarbital-induced sleep was performed according to published methods with slight modifications. Mice were fasted for 24 h prior to the experiment. Each test article was dissolved or suspended in physiological saline and then was administered per os. The groups were administered doses of 20 mg/kg theanine, Mg-theanate #1 (20 mg theanine/kg), and Mg-theanate #2 (20 mg theanine/kg), respectively. Forty-five minutes later, a hypnotic dose of pentobarbital (42 mg/kg) was injected into the left side of the abdomen. After injection, the mice were placed in individual cages and subjected to measurements of sleep latency and duration. Sleep latency was defined as the period between pentobarbital injection and the loss of righting reflex (sleep onset), and sleep duration denoted the time elapsed between loss of the righting reflex and recovery.
Statistical Analyses—Data are shown as mean±SEM. Sample size was calculated based on a power of 85% and a p-value of 0.05. Given that assumption, a sample size of seven per treatment was calculated. The data were analyzed using the GLM procedure of SAS (SAS Institute: SAS User's Guide: Statistics). The treatments were compared using ANOVA and Student's unpaired t-test; P<0.05 was considered statistically significant.

[3] = Observations after administration in the animal studies of Example 5 (absorption, side effects); assay type: in vivo, mice
Text: Neither component in magnesium […] compositions of the invention (i.e., magnesium or L-theanine) has been reported to cause addiction.

[4] = tested on: brain serotonin, dopamine and melatonin; assay: Brain neurotransmitter levels by ELISA in caffeine-induced wakefulness mice; assay type: in vivo; conditions: caffeine-induced wake mouse, result in words
[5] = tested on: GABAA-R2, GABAB-R1, GABAB-R2, 5-HT1A, GluA1, GluN1, GluN2A; assay: Western blot of GABA and other neurotransmitter receptors in caffeine-induced wakefulness mice; conditions: caffeine-induced wake mouse; result in words; listed as magnesium di-L-theanate compositions
[6] = tested on: caffeine-induced wakefulness mice; assay: Caffeine-induced wakefulness mouse model: sleep latency, sleep duration, number falling asleep; assay type: in vivo
Experimental: Animals and Experimental design: Seven male BALB/c mice per treatment arm (age: 8 weeks, weight: […]) were housed in a controlled environment with a 12:12-h light-dark cycle at 22° C. and were provided with mice chow and water ad libitum. All experiments were conducted under the National Institutes of Health's Guidelines for the Care and Use of Laboratory Animals and approved by the Ethics Committee of the Medipol University.
Drugs and materials: Study product was provided by Nutrition21 LLC (Mg-Theanate #1=lot AA209-122-20, Mg-Theanate #2=lot BLS-DN 13). […] The concentration of each drug solution was adjusted so that the volume injected was constant at 1.0 ml/kg BW. All drug solutions were prepared fresh daily, and were administered intraperitoneally (i.p.). […]

Storage stability = assay type: physicochemical; conditions: temperature range, low relative humidity; result in words; listed as Magnesium di-L-theanate compositions
[7] = tested on: Bax, Bcl-2, Caspase-3, eNOS, iNOS; assay: Western blot of brain cell survival indicators in caffeine-induced wakefulness mice; conditions: caffeine-induced wake mouse; result in words; listed as magnesium di-L-theanate
Solubility in water = assay type: physicochemical
[8] = listed as magnesium di-L-theanate compositions
[9] = result in words, listed as magnesium di-L-theanate composition
[10] = result in words, listed as magnesium di-L-theanate compositions
[11] = caffeine-induced awake mouse model, result in words
[12] = caffeine-induced wake mouse, caffeine alone or + test article (20 mg theanine/kg)

SMILES: CCNC(=O)CCC(N)C(=O)O [Mg Theanate Composition, magnesium di-L-theanate]
- Levels of protective enzymes (SOD, CAT, GSHPx) (MDA, SOD, CAT, GSHPx): protective enzymes were decreased, the adverse changes were not as great as those shown by
- Level of MDA (indicator of oxidative stress) (MDA, SOD, CAT, GSHPx; [8]): decrease in oxidative stress
- Levels of protective enzymes (SOD, CAT, GSHPx) (MDA, SOD, CAT, GSHPx; [8]): restoration of brain anti-oxidant status
- Amplitude of brain waves [1]: increased significantly and was maintained throughout the 120 minute study period. Spike
- Spike frequency of electrical activity in the brain [1]: frequency was significantly reduced and comparable to caffeine/theanine-treated animals.
- Amplitude of brain waves [1, 8]: significant increase
- Spike frequency of electrical activity in the brain [1, 8]: significant reduction
- Animals that fell asleep (10-minute period following pentobarbital administration) ([2]; 20 mg theanine/kg per os): over 50%
- Likelihood to fall asleep within the 10 minute limit as compared to theanine ([2]; 20 mg theanine/kg per os, result in words): significantly more likely to fall asleep
- Duration of sleep [2, 9]: significantly increased
- Sleep latency period [2, 9]: significantly reduced
- Duration of sleep [2, 10]: significantly and more effectively increased
- Sleep latency period [2, 10]: significantly and more effectively decreased
- Adverse effects on activities during or immediately after wakefulness [3]: No adverse effects were observed
- Side effects during or after treatment [3]: No side effects were observed
- Absorption and distribution following administration ([3]; result in words): rapidly absorbed and distributed to the brain
- Neurotransmitter levels (brain serotonin, dopamine, and melatonin) [4]: animals, levels of all three neurotransmitters were more significantly restored to control
- Neurotransmitter levels (brain serotonin, dopamine, and melatonin) [4, 8]: significant restoration
- GABA and other neurotransmitter receptors (receptor levels) [5]: significant diminution in the caffeine-related reduction
- Time after administration at which beneficial enhancement of sleep properties was exhibited ([6]; as early as): about 30 minutes
- Number of animals falling asleep as compared to L-theanine-treated animals [6, 11]: significant increase
- Sleep duration as compared to L-theanine itself [6, 11]: significant lengthening and normalization
- Sleep latency period as compared to L-theanine itself [6, 11]: significant decrease
- Number of animals falling asleep (share of the group that fell asleep) [6, 12]: + Mg Theanate Composition: 70% of the group fell asleep
- Sleep duration period [6, 12]: + Mg Theanate Composition: The sleep duration period of about 50 minutes was greatly
- Sleep latency period [6, 12]: slightly more than 1 minute, a significantly shorter period than found in caffeine-treated minutes
- Storage stability (Storage stability): stable during storage under conditions having temperatures ranging from −80 °C to +120 °C at low relative humidity; also recorded: greatest at temperatures from −80 °C to +60 °C at low relative humidity
- Brain cell survival (Bax, Bcl-2, Caspase-3, eNOS, and iNOS, indicators of cell damage) [7]: significant normalization
- solubility (Solubility in water): ~650 mg/mL (≈ 3730 mM)

Reference: patent US12329774B2, “Method and composition for enhancing the quality and benefits of sleep” (priority 2020, dated 2025)
